Molecules are shown by their SMILES.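 Results reflect a 48-hour exposure of cells in 96-well plates to compound at five concentrations. Abbreviation: GI50, concentration required for 50% inhibition of growth. TGI is the concentration that stops growth completely.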 A value given as a limit tells only on which side of the number the result lay.

Common to all, as to assay: DTP human tumour cell line panel, 48 h
In test [1] the test system is OVCAR-4 ovarian.
Test [2] concerns UO-31 renal.
Test [3] concerns ACHN renal.
The test system of test [4] is BT-549 breast.
Test [5] has as its system U251 CNS.
Test [6] relates to CCRF-CEM leukemia.
The test system of test [7] is UACC-62 melanoma.
In test [8] the test system is IGROV1 ovarian.
Test [9] deals with SNB-19 CNS.
Test [10] deals with SK-OV-3 ovarian.

One may read the TGI as the concentration giving total growth inhibition. The low end stands for greater sensitivity of the cells, the high end for lower sensitivity of the cells. For the compound `O=C1OC(=O)c2c1cc1cc3c(cc1c2-c1ccc2c(c1)OCO2)OCO3`, the TGI in test [1], in test [2], in test [3], in [4], in [5] and in test [6] was over 100 µM each time. Moreover, the TGI in test [7], in [8] and in [9] was over 100 µM each time.
The GI50 is the concentration that inhibits growth by half. For `COc1cc(/C=C2\CC3C4CC=C5C[C@@H](N6CCCC6)CC[C@]5(C)C4CC[C@]3(C)[C@H]2OC(C)=O)ccc1OCCCn1ccnc1` (some centres undefined), the GI50 in test [2] is 2.01 µM; in test [3], 0.383 µM; in [4] it was 2.19 µM; in test [5], 0.0845 µM; in test [6] it was 1.22 µM; in test [7], 0.63 µM. For the same compound, the GI50 in [8] was 8.12 µM; in test [9], 1.46 µM. Besides, the TGI in [2] was over 50 µM; in test [3] it was 1.09 µM; in [4], 9.72 µM; in [5] it was 0.164 µM; in [6], 3.91 µM; in test [7] it was 2.26 µM. The TGI in test [8] and in [9] was over 50 µM in each case.
With `O=c1oc2cc(O)ccc2cc1-c1nc2ccccc2o1`, the TGI was over 100 µM in [1]; 80.2 µM in [2]; over 100 µM in test [3]; 54 µM in test [4]; 93.5 µM in test [5]; over 100 µM in [6]. For the same compound, the TGI in test [7], in [8] and in [9] was over 100 µM in each case.
For `C=CC(=O)N1CCN(c2nc(OC[C@@H]3CCCN3C)nc3c(F)c(-c4nc(N)cc(C)c4C(F)(F)F)c(Cl)cc23)[C@@H](C)C1`, the GI50 is 1.59 µM in test [1]; 1.92 µM in [2]; 3.41 µM in test [3]; 2.62 µM in [10]; 1.71 µM in test [4]; 1.96 µM in test [5]. Moreover, the GI50 in [6] is 3.08 µM; in test [8], 1.7 µM; in test [9] it was 3.44 µM. In addition, the concentration for total growth inhibition (TGI) in test [1] came out at 3 µM; in [2], 5.01 µM; in test [3], 12.6 µM; in test [10], 6.42 µM; in test [4], 3.32 µM; in test [5], 5.05 µM. Moreover, the figures for the concentration for total growth inhibition (TGI) in test [6], in test [8] and in [9] were over 100 µM, 3.54 µM and 12.8 µM, respectively.
With `CC(C)(C)c1ccc(OCCCCCCCN2CCNCC2)cc1`, the GI50 in test [1] was 1.6 µM; in test [2], 1.43 µM; in test [10] it was 1.82 µM; in test [4], 1.53 µM; in [5], 1.51 µM; in test [6], 1.62 µM. For the same compound, the values for the GI50 in test [7], in test [8] and in test [9] were 1.88 µM, 1.92 µM and 3.42 µM, respectively. Further, the TGI was determined as 3.22 µM in test [1]; 3.31 µM in test [2]; 3.92 µM in [10]; 3.01 µM in test [4]; 3.05 µM in test [5]; 4.1 µM in test [6]. Further, the TGI in [7] turned out to be 3.6 µM; in [8] it was 3.66 µM; in test [9] it was 12.8 µM.
Regarding `O=C(Nc1cccc2[nH]c(C(F)(F)F)nc12)c1ccc(Br)cc1F`, the GI50 in [2] was 1.98 µM; in test [3], 3.08 µM; in test [10], 2.64 µM; in test [4], 3.01 µM; in test [6] it was 3.23 µM; in test [7], 3.26 µM. The GI50 in test [8] is 6.75 µM; in test [9], 3.79 µM. Also, the TGI stood at 7.36 µM in [2]; 11.1 µM in test [3]; 9.27 µM in test [10]; 10.3 µM in test [4]; 20.1 µM in [6]; 13.5 µM in test [7]. For the same compound, the TGI in test [8] came out at 32.4 µM; in [9], 14.6 µM.
Consider `O=C1CC[C@@H]2[C@H]3CCC(=O)c4c3c(c3cccc(O)c3c4O)O[C@@]23C(=O)c2cccc(O)c2C(O)=C13`, for which the GI50 in test [2], in test [3], in test [4], in test [5], in [7] and in test [8] was over 100 µM in each case. Besides, in test [9], the GI50 was over 100 µM. The TGI in test [2], in test [3], in test [4], in [5], in [7] and in test [8] was over 100 µM in each case. This compound gave a TGI in test [9] of over 100 µM.
`NC(=O)c1c(NC(=O)c2ccc(C(F)(F)F)cc2Cl)sc2c1CCC(=O)C2`: the GI50 was 0.237 µM in [2]; 0.322 µM in [3]; 2.47 µM in test [10]; 0.294 µM in [4]; 0.27 µM in test [5]; 0.146 µM in [6]. The results for the GI50 in test [7], in test [8] and in [9] were 0.274 µM, 0.498 µM and 0.375 µM, respectively. Besides, the total growth inhibition concentration (TGI) in test [2] is 0.809 µM; in test [3] it was 1.04 µM; in test [10] it was 7.56 µM; in [4], 1.91 µM; in test [5] it was 1.75 µM; in test [6], over 100 µM. Further, the concentration for total growth inhibition (TGI) in test [7] was 1.21 µM; in [8], 2.37 µM; in [9], 3.96 µM.
Consider `CCOC(=O)c1c(C)n(Cc2ccc(Cl)cc2Cl)c2c1cc(O)c1[nH]c(Cc3ccccc3)nc12`, for which the GI50 in test [1] is 4.15 µM; in test [2], 3.75 µM; in test [3] it was 3.49 µM; in test [10], 16.3 µM; in test [4], 2.77 µM; in test [5] it was 3.41 µM. Besides, the GI50 was 18.6 µM in test [7], 3.22 µM in test [8] and 5.54 µM in test [9]. Further, the TGI in [1] came out at 16.7 µM; in test [2], 16.6 µM; in test [3], 13.4 µM; in [10], 32 µM; in [4], 7.02 µM; in test [5], 12.1 µM. Also, the concentration for total growth inhibition (TGI) in [7] amounted to 34.1 µM; in test [8], 15.8 µM; in test [9] it was 23.1 µM.
Turning to `CN(COC(=O)C(C)(C)C)c1nc(N(C)COC(=O)C(C)(C)C)nc(N(C)COC(=O)C(C)(C)C)n1`, the TGI in test [1], in test [2], in [3], in test [10], in test [4] and in [6] was over 100 µM each time. Also, the concentration for total growth inhibition (TGI) in test [8] and in test [9] was over 100 µM in each case.
As to `Cc1ccc(-c2csc3ncnc(Nc4cccc(O)c4)c23)cc1`, the GI50 in test [1] is 44.6 µM; in test [2], 35.5 µM; in [10], 38.6 µM; in test [4] it was 37 µM; in [5], 22.5 µM; in [6], 21 µM. Moreover, the GI50 in [7] is 28 µM; in test [8], 17.8 µM; in [9] it was 50.7 µM. For the same compound, the total growth inhibition concentration (TGI) in test [1] was over 100 µM; in test [2], over 100 µM; in [10], over 100 µM; in [4], 98.2 µM; in test [5], 58.6 µM; in test [6] it was 91.1 µM. Further, the values for the concentration for total growth inhibition (TGI) in test [7], in [8] and in test [9] were 73 µM, 57.5 µM and over 100 µM, respectively.
As to `C[C@H]1CCC/C=C/[C@@H]2C[C@H](O)C[C@H]2[C@H](O)C(O)C(O)C(=O)O1` (some centres undefined), the GI50 is 3.44 µM in test [2]; 3.43 µM in test [3]; 3.75 µM in test [10]; 2.72 µM in [4]; 3.51 µM in test [5]; 2.73 µM in test [6]. Further, the GI50 in test [7] is 1.07 µM; in [8], 2.96 µM; in test [9], 3.35 µM. The TGI was over 76.1 µM in [2]; 20.9 µM in test [3]; over 100 µM in test [10]; over 100 µM in test [4]; over 100 µM in [5]; over 25.9 µM in test [6]. Further, the results for the concentration for total growth inhibition (TGI) in test [8] and in [9] were 11.7 µM and over 100 µM, respectively.
For `Nc1ccccc1SC(CC(=O)c1ccccc1)c1c(Cl)cccc1Cl` (centres undefined), the GI50 was 4.84 µM in [1]; 1.27 µM in test [2]; 2.16 µM in test [3]; 12.1 µM in [10]; 3.46 µM in test [4]; 4.24 µM in test [5]. Further, the GI50 in [6] was 2.67 µM; in test [8], 2.74 µM; in [9], 10.5 µM. Also, the TGI in test [1] is 18.4 µM; in test [2], 4.64 µM; in test [3] it was 5.6 µM; in test [10], 28.8 µM; in test [4] it was 13.3 µM; in test [5], 15.3 µM. In addition, the TGI amounted to 8.49 µM in test [6], 8.62 µM in test [8] and 22.9 µM in test [9].
Consider `NNC(=S)N/N=C(\c1nc2ccc(Cl)cc2[nH]c1=O)C(O)c1cccc([N+](=O)[O-])c1` (centres undefined), for which the TGI in test [1], in [2], in test [3], in test [10], in test [5] and in [6] was over 100 µM each time. Moreover, the TGI in test [7], in [8] and in test [9] was over 100 µM in each case.
Consider `CN(C)Cc1nsc(N(C)C)n1`, for which the total growth inhibition concentration (TGI) in [1], in test [2], in [3], in test [10], in test [4] and in test [5] was over 100 µM throughout. Also, the TGI in test [7], in [8] and in test [9] was over 100 µM each time.
Turning to `CC(C)OC(=O)NNc1c(Cl)cc(Cl)cc1Cl`, the TGI in [2], in test [3], in test [10], in [4], in test [5] and in test [6] was over 100 µM throughout. The TGI in [7], in test [8] and in test [9] was over 100 µM each time.
Consider `O=C1c2ccccc2-n2c1nc1ccc([N+](=O)[O-])cc1c2=O`, for which the TGI in [2], in test [3], in test [10], in test [4], in test [5] and in test [6] was over 100 µM each time. Moreover, the concentration for total growth inhibition (TGI) in test [7], in test [8] and in test [9] was over 100 µM in each case.
Regarding `CC1=C(C(=O)Nc2cc(F)c(F)cc2F)C(c2ccc(N(C)C)cc2)C(C(=O)Nc2cc(F)c(F)cc2F)=C(C)N1`, the TGI was over 79.1 µM in [1]; over 84.4 µM in [2]; over 87.9 µM in [3]; over 100 µM in [10]; over 100 µM in test [5]; over 85.9 µM in test [6]. In addition, the concentration for total growth inhibition (TGI) in [7] is 89.8 µM; in [8], over 100 µM; in test [9] it was over 100 µM. In [7], the GI50 is 12.2 µM.
Regarding `Cc1nc2sc(C(=O)Nc3cccc4c3OCCO4)c(N)c2cc1C(C)O` (centres undefined), the GI50 in test [1] is over 100 µM; in [2], 7.3 µM; in test [3], 5.54 µM; in test [10], 5.75 µM; in [5] it was 4.66 µM; in test [6] it was 3.5 µM. Further, the GI50 is 2.97 µM in [7], 4.84 µM in test [8] and 6.8 µM in test [9]. Moreover, the TGI in test [1], in test [2], in test [3], in test [10], in [5] and in test [6] was over 100 µM each time. Also, the total growth inhibition concentration (TGI) in [7], in test [8] and in [9] was over 100 µM in each case.
As to `Cc1ccc(C)c(NC(=O)C(=O)C(C2C(C)CC(=O)C2CC(=O)O)[N+](=O)[O-])c1` (centres undefined), the concentration for total growth inhibition (TGI) in [1], in test [2], in [3], in [10], in [5] and in test [6] was over 100 µM throughout. Also, the concentration for total growth inhibition (TGI) in test [7], in test [8] and in test [9] was over 100 µM throughout.
Turning to `CC1(C)CCOC(Sc2ccccc2)C1` (centres undefined), the total growth inhibition concentration (TGI) in test [1], in test [2], in test [3], in test [10], in test [5] and in [6] was over 100 µM throughout. Besides, the TGI in [7], in test [8] and in test [9] was over 100 µM each time.

Values taken from PubChem BioAssay (NCI).
